The text below walks through data of BindingDB's records for doi:10.1016/j.bmcl.2014.03.095 (University of Utah, 2014).

For this assay, the target named is Elongin-B/Elongin-C/von Hippel-Lindau disease tumor suppressor (Homo sapiens, UniProt P40337+Q15370+Q15369). Kind of assay: Displacement of FAM-DEALAHyp-YIPD from 6xHis-tagged VHL (1 to 213)/elongins-B/elonginC (unknown origin) expressed in Escherichia coli BL21 after 1 min by fluorescence polarization assay. (In general: Fluorescence polarisation rises when a labelled molecule tumbles more slowly, as on binding a larger partner.)
Chain of Elongin-B/Elongin-C/von Hippel-Lindau disease tumor suppressor (P40337 whole entry, looked up): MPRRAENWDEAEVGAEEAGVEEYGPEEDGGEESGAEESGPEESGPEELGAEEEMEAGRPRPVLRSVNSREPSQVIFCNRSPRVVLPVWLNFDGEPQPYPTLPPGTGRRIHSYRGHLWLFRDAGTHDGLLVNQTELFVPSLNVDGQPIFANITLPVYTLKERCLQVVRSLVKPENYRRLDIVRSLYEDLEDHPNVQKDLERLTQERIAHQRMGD
Chain of Elongin-B/Elongin-C/von Hippel-Lindau disease tumor suppressor (Q15369 whole entry, looked up): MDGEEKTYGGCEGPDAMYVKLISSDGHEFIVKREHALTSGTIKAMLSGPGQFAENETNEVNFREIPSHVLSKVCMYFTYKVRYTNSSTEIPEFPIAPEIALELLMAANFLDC
Chain of Elongin-B/Elongin-C/von Hippel-Lindau disease tumor suppressor (Q15370 whole entry, looked up): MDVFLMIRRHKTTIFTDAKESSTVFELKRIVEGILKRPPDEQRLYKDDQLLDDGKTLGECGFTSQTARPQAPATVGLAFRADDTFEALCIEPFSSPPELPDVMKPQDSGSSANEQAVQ

Take `Cc1cc(CC(=O)N2C[C@H](O)C[C@H]2C(=O)NCc2cccc(Cl)c2)on1`: the IC50 (commonly the concentration needed to halve the response being measured) came to 117 µM.
